Experimental data: PubChem BioAssay (NCI)
Where “and” joins values, the source holds several entries; their conditions need not be identical. Equal entries are not always repeated.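 Cells were grown in 96-well plates and exposed to each compound for 48 hours at five concentrations; endpoints were interpolated linearly between bracketing concentrations, or set to the highest concentration if not reached. GI50 = concentration required for 50% inhibition of growth. The concentration for full growth arrest is given as TGI.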

Tests used:
Experiment in all cases: NCI anticancer screen, dose series, 48 h
ACHN renal = tested on: ACHN renal
CAKI-1 renal = tested on: CAKI-1 renal
COLO 205 colon = tested on: COLO 205 colon
HT29 colon = tested on: HT29 colon
LOX IMVI melanoma = tested on: LOX IMVI melanoma
SF-295 CNS = tested on: SF-295 CNS
SK-MEL-28 melanoma = tested on: SK-MEL-28 melanoma
SK-MEL-5 melanoma = tested on: SK-MEL-5 melanoma
SK-OV-3 ovarian = tested on: SK-OV-3 ovarian
SW-620 colon = tested on: SW-620 colon

Row | SMILES | GI50 (ACHN renal) | TGI (ACHN renal) | GI50 (CAKI-1 renal) | TGI (CAKI-1 renal) | GI50 (COLO 205 colon) | TGI (COLO 205 colon) | GI50 (HT29 colon) | TGI (HT29 colon) | GI50 (LOX IMVI melanoma) | TGI (LOX IMVI melanoma) | GI50 (SF-295 CNS) | TGI (SF-295 CNS) | GI50 (SK-MEL-28 melanoma) | TGI (SK-MEL-28 melanoma) | GI50 (SK-MEL-5 melanoma) | TGI (SK-MEL-5 melanoma) | GI50 (SK-OV-3 ovarian) | TGI (SK-OV-3 ovarian) | GI50 (SW-620 colon) | TGI (SW-620 colon)
1 | CCOC(=O)c1cc(C(=O)c2cc(OC)cc(OC)c2)n2ncccc12 | 12.2 µM | > 100 µM | 2.97 µM | > 100 µM | 0.797 µM | 75.5 µM | 0.403 µM | > 100 µM | 0.804 µM | > 100 µM | 2.1 µM | > 100 µM | 7.36 µM | > 100 µM | 0.508 µM | > 100 µM | 4.9 µM | > 100 µM | 0.518 µM | > 100 µM
2 | NC(C(=O)O)C(N)C(=O)O (centres undefined) | – | > 100 µM | – | > 100 µM | – | > 100 µM | – | > 100 µM | – | > 100 µM | – | > 100 µM | – | > 100 µM | – | > 100 µM | – | > 100 µM | – | > 100 µM
3 | COC(=O)/C(=C/N1CCN(C(=O)c2ccco2)C1=S)C(C)=O | 4.05 µM | 17.8 µM | 2.82 µM | 8.52 µM | 12.6 µM | 35.8 µM | 15.8 µM | 46 µM | 1.59 µM | 3.99 µM | 18.6 µM | 83.8 µM | 9.08 µM | 52.6 µM | 5.26 µM | 17.4 µM | 31.3 µM | 78.2 µM | 3.9 µM | 12.5 µM
4 | O=C(O)C1Cc2nc[nH]c2CN1 (centres undefined) | – | > 100 µM | – | > 100 µM | – | > 100 µM | – | > 100 µM | – | > 100 µM | – | > 100 µM | – | > 100 µM | – | > 100 µM | – | > 100 µM | – | > 100 µM
5 | COc1cc(/C=C2\C(=O)N(c3c(Cl)cccc3Cl)c3ccccc32)cc(OC)c1O | 0.59 µM | 14.2 µM | 0.455 µM | 19.1 µM | 5.94 µM | 18.7 µM | 2.17 µM | 8.62 µM | 0.303 µM | 4.65 µM | 0.702 µM | 16.7 µM | 1.25 µM | 13.5 µM | 0.375 µM | 6.26 µM | 2.06 µM | 18.9 µM | 0.702 µM | 16.2 µM
6 | O=C1C=C(Br)C(=O)C(Br)=C1 | – | > 100 µM | – | > 100 µM | – | > 100 µM | – | > 100 µM | – | > 31.6 µM | – | > 100 µM | – | > 100 µM | – | > 100 µM | – | > 100 µM | – | > 100 µM
7 | O=C1C(Nc2ccccn2)=C(I)C(=O)c2ncccc21 | 0.403 µM | 4.49 µM | 0.826 µM | 2.12 µM | 1.9 µM | 3.68 µM | 2.75 µM | 8.48 µM | 0.305 µM | 1.66 µM | 1.19 µM | 2.56 µM | 1.68 µM | 3.18 µM | 1.11 µM | 2.31 µM | 1.33 µM | 2.64 µM | 0.33 µM | 1.63 µM
8 | CC(=O)N1c2ccccc2C23CCN4CC5=CCOC(O)C(C5CC42)C13 (centres undefined) | – | > 100 µM | – | > 100 µM | – | > 100 µM | – | > 100 µM | – | > 100 µM | – | > 100 µM | – | > 100 µM | – | > 100 µM | – | > 100 µM | – | > 100 µM
9 | COc1cc(C2C(C(=O)O)=C(C)Oc3cc4c(cc32)OCO4)cc(OC)c1OC (centres undefined) | – | > 100 µM | – | > 100 µM | – | 60.6 µM | – | > 100 µM | – | > 100 µM | – | 59.5 µM | – | > 100 µM | – | > 100 µM | – | 91.2 µM | – | > 100 µM
10 | CC/C(=C(\c1ccc(O)cc1)c1ccc(OCCNC)cc1)c1ccccc1 | 2.11 µM and 1.65 µM and 1.94 µM | 4.85 µM and 3.48 µM and 4.1 µM | 1.82 µM and 1.68 µM and 2.02 µM | 4.28 µM and 3.52 µM and 6.29 µM | 1.78 µM and 1.8 µM | 3.28 µM and 3.31 µM and 3.44 µM | 1.71 µM and 1.55 µM | 3.39 µM and 2.92 µM and 3.46 µM | 1.47 µM and 1.45 µM and 1.73 µM | 2.79 µM and 2.77 µM and 3.22 µM | 1.72 µM and 1.84 µM and 1.94 µM | 3.48 µM and 3.55 µM and 4.09 µM | 1.67 µM and 1.55 µM and 1.74 µM | 3.04 µM and 2.94 µM and 3.28 µM | 1.77 µM and 1.66 µM and 1.71 µM | 3.17 µM and 3.07 µM | 5.14 µM and 3.69 µM and 2.08 µM | 13.6 µM and 9.3 µM and 5.09 µM | 1.69 µM and 1.75 µM and 1.85 µM | 3.11 µM and 3.26 µM and 3.74 µM
11 | C[C@]12CC[C@H]3[C@@H](C[C@@H]4SC(Nc5cccc(F)c5)=N[C@@]45CC(=O)CC[C@]35C)[C@@H]1CCC2=O | 1.78 µM | 3.24 µM | 1.99 µM | 5.73 µM | 2.16 µM | 4.81 µM | 1.49 µM | 3.51 µM | 1.67 µM | 3.21 µM | 1.19 µM | 2.97 µM | 1.52 µM | 4.27 µM | 2.02 µM | 4.32 µM | 2.33 µM | 6.1 µM | 2.33 µM | 4.99 µM
12 | O=C(C#Cc1c[nH]c(=O)[nH]c1=O)c1ccccc1 | – | 29.6 µM | – | 32.3 µM | – | 19.6 µM | – | 53.7 µM | – | 16.3 µM | – | > 100 µM | – | 22.9 µM | – | 25.2 µM | – | 62.9 µM | – | 18.9 µM
13 | O=C(N/N=C/c1cc2ccccc2c2ccccc12)c1cc(O)c(O)c(O)c1 | 3.25 µM | 12.6 µM | 3.72 µM | 19.1 µM | 3.14 µM | 10.9 µM | 9.95 µM | 31 µM | 2.38 µM | 5.98 µM | 14.9 µM | 32.1 µM | 3.57 µM | 15.1 µM | 2.9 µM | 10.6 µM | 4.31 µM | 15.6 µM | 2.96 µM | 12.4 µM
14 | O=S(=O)(Nc1ccc(Cl)c(C(F)(F)F)c1)c1ccc(-c2cnc(C3CC3)o2)cc1 | 0.789 µM | 6.88 µM | 0.162 µM | 5.75 µM | 0.419 µM | 2.33 µM | 0.157 µM | – | 0.394 µM | 3.22 µM | 0.131 µM | 2.12 µM | 1.17 µM | 5.79 µM | 0.296 µM | 1.75 µM | 0.919 µM | 5.18 µM | 0.175 µM | > 35.5 µM
15 | Cc1oc2c(c1C(=O)c1ccccc1)C(=O)c1ccccc1C2=O | – | 15.3 µM | – | 9.12 µM | – | 36.5 µM | – | 39.6 µM | – | 7.52 µM | – | 22.1 µM | – | 24.3 µM | – | 4.15 µM | – | 20.7 µM | – | 4.59 µM
